Assay [1] has as its target T1, human recombinant HDAC6 (Homo sapiens, UniProt Q9UBN7).
T1 construct: purchased Calbiochem 382180
T1 sequence (Q9UBN7 1-1215): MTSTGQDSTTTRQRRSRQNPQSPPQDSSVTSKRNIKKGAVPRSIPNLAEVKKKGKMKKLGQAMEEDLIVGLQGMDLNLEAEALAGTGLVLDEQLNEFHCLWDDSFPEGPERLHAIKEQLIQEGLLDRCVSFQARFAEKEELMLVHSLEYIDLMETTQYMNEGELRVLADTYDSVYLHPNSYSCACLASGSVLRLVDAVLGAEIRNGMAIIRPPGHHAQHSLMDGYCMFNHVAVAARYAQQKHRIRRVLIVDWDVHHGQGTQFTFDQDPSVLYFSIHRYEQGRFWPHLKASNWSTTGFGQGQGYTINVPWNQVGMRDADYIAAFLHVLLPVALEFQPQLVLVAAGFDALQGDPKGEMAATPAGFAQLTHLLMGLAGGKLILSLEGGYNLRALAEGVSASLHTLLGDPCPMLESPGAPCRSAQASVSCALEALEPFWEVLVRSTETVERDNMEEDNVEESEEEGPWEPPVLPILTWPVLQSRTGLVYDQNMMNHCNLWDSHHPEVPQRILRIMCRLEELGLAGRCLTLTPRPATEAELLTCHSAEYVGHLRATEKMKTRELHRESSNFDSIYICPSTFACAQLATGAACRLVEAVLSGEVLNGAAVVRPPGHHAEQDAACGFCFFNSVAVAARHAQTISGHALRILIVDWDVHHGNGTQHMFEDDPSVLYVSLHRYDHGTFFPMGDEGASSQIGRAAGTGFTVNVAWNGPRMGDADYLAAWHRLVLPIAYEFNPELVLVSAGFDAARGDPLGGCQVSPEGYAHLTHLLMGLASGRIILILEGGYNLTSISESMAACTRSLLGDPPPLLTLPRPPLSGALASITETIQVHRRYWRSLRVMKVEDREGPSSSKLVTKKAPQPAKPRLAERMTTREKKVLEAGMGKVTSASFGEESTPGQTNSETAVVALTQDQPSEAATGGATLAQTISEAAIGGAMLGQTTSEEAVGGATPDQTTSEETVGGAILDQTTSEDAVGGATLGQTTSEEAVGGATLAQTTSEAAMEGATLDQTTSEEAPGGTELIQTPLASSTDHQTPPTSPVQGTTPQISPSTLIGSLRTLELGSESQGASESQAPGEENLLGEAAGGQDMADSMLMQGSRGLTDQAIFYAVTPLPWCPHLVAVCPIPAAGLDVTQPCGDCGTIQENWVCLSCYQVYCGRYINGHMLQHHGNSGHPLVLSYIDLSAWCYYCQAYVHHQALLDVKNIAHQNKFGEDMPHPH
Nature of the assay: HDAC6 enzyme activity inhibition assay (HDAC Fluorimetric Drug Discovery Kit). Format: biochemical. Conditions: 30° C. 60 minutes. A digest of the protocol: (§1)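 First, compound in 5-fold dilution steps is combined with 0.3 μg enzyme and 10 μM Fluor de Lys-SIRT1 substrate. After 60 min at 30° C, developer is added for 30 min. Fluorescence at Ex 360/Em 460 then gives IC50 values.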

Assay [2] addresses T2, human recombinant HDAC1 (Homo sapiens, UniProt Q13547).
T2 construct: purchased Enzo Life Science BML-SE456
Briefly: HDAC1 enzyme activity inhibition assay (HDAC Fluorimetric Drug Discovery Kit). As to conditions: human recombinant HDAC1, 10 μM substrate, 30° C. 60 minutes. Format: biochemical. A digest of the protocol:
as §1

In US10494355B2, “Oxadiazole amine derivative compounds as histone deacetylase 6 inhibitor, and the pharmaceutical composition comprising the same” (Chong Kun Dang Pharmaceutical Corp., priority 2015, dated 2019) one finds IC50 data, which are given here for 21 molecules.

T2 sequence (Q13547 whole entry): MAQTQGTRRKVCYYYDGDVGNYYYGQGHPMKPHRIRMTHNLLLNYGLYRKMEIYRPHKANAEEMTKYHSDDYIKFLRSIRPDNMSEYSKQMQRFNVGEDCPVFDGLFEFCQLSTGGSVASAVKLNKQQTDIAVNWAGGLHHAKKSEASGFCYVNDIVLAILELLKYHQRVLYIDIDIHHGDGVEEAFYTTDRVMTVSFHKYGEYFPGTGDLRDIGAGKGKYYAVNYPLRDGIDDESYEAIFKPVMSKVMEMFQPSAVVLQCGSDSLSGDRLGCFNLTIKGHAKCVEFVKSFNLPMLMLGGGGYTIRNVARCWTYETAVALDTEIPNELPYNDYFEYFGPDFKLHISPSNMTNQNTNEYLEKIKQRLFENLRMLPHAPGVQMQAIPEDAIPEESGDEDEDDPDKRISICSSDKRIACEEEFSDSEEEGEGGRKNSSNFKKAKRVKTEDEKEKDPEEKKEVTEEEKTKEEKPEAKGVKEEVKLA

Usually IC50 stands for the concentration that inhibits the measured activity by half. On to `FC(F)c1nnc(-c2cnc(NC3(c4ccc(N5CCCCC5)cc4)CCC3)nc2)o1` [Compound 2041, 5-(5-(difluoromethyl)-1,3,4-oxadiazol-2-yl)-N-(1-(4-(piperidin-1-yl)phenyl)cyclobutyl)pyrimidin-2-amine], for which the concentration for half-maximal inhibition (IC50) was 189 nM in assay [1] and more than 10000 nM in assay [2].

Regarding `FC(F)c1nnc(-c2cnc(NC3(c4ccccc4C(F)(F)F)CCC3)nc2)o1` [Compound 2042, 5-(5-(difluoromethyl)-1,3,4-oxadiazol-2-yl)-N-(1-(2-(trifluoromethyl)phenyl)cyclobutyl)pyrimidin-2-amine], the half-inhibitory concentration (IC50) in assay [1] is 173 nM; in assay [2], more than 10000 nM.

On to `FC(F)c1nnc(-c2cnc(NC3(c4ccc(C(F)(F)F)cc4)CCC3)nc2)o1` [Compound 2043, 5-(5-(difluoromethyl)-1,3,4-oxadiazol-2-yl)-N-(1-(4-(trifluoromethyl)phenyl)cyclobutyl)pyrimidin-2-amine], for which the half-inhibitory concentration (IC50) is 277 nM in assay [1] and more than 10000 nM in assay [2].

With `FC(F)(F)c1ccc(C2(Nc3ncc(-c4nnc(C(F)(F)F)o4)cn3)CCC2)cc1` [Compound 2044, 5-(5-(trifluoromethyl)-1,3,4-oxadiazol-2-yl)-N-(1-(4-(trifluoromethyl)phenyl)cyclobutyl)pyrimidin-2-amine], the IC50 in assay [1] was 1740 nM; in assay [2], more than 10000 nM.

Turning to `Fc1ccc(C2(Nc3ncc(-c4nnc(C(F)F)o4)cn3)CCC2)cc1F` [Compound 2045, 5-(5-(difluoromethyl)-1,3,4-oxadiazol-2-yl)-N-(1-(3,4-difluorophenyl)cyclobutyl)pyrimidin-2-amine], the IC50 in assay [1] was 61 nM; in assay [2], more than 10000 nM.

`Fc1ccc(C2(Nc3ncc(-c4nnc(C(F)F)o4)cn3)CCC2)cc1N1CCOCC1` [Compound 2046, 5-(5-(difluoromethyl)-1,3,4-oxadiazol-2-yl)-N-(1-(4-fluoro-3-morpholinophenyl)cyclobutyl)pyrimidin-2-amine]: the half-maximal inhibitory concentration (IC50) was 329 nM in assay [1] and more than 10000 nM in assay [2].

`COc1ccccc1C1(Nc2ncc(-c3nnc(C(F)F)o3)cn2)CC1` [Compound 2047, 5-(5-(difluoromethyl)-1,3,4-oxadiazol-2-yl)-N-(1-(2-methoxyphenyl)cyclopropyl)pyrimidin-2-amine]: the IC50 in assay [1] is 32 nM; in assay [2], more than 10000 nM.

For the molecule `COc1cccc(C2(Nc3ncc(-c4nnc(C(F)F)o4)cn3)CC2)c1` [Compound 2048, 5-(5-(difluoromethyl)-1,3,4-oxadiazol-2-yl)-N-(1-(3-methoxyphenyl)cyclopropyl)pyrimidin-2-amine], the half-inhibitory concentration (IC50) in assay [1] was 63 nM; in assay [2], more than 10000 nM.

For `COc1ccc(C2(Nc3ncc(-c4nnc(C(F)F)o4)cn3)CC2)cc1` [Compound 2049, 5-(5-(difluoromethyl)-1,3,4-oxadiazol-2-yl)-N-(1-(4-methoxyphenyl)cyclopropyl)pyrimidin-2-amine], the IC50 in assay [1] was 51 nM; in assay [2], more than 10000 nM.

In the case of `FC(F)c1nnc(-c2cnc(NC3(c4cccc(Cl)c4)CC3)nc2)o1` [Compound 2050, N-(1-(3-chlorophenyl)cyclopropyl)-5-(5-(difluoromethyl)-1,3,4-oxadiazol-2-yl)pyrimidin-2-amine], the results for the half-inhibitory concentration (IC50) in assay [1] and in assay [2] were 26 nM and more than 10000 nM, respectively.

For `FC(F)(F)c1nnc(-c2cnc(NC3(c4cccc(Cl)c4)CC3)nc2)o1` [Compound 2051, N-(1-(3-chlorophenyl)cyclopropyl)-5-(5-(trifluoromethyl)-1,3,4-oxadiazol-2-yl)pyrimidin-2-amine], the IC50 was 152 nM in assay [1] and more than 10000 nM in assay [2].

Regarding `FC(F)c1nnc(-c2cnc(NC3(c4ccc(Cl)cc4)CC3)nc2)o1` [Compound 2052, N-(1-(4-chlorophenyl)cyclopropyl)-5-(5-(difluoromethyl)-1,3,4-oxadiazol-2-yl)pyrimidin-2-amine], the IC50 in assay [1] was 75 nM; in assay [2], more than 10000 nM.

Regarding `FC(F)(F)c1nnc(-c2cnc(NC3(c4ccc(Cl)cc4)CC3)nc2)o1` [Compound 2053, N-(1-(4-chlorophenyl)cyclopropyl)-5-(5-(trifluoromethyl)-1,3,4-oxadiazol-2-yl)pyrimidin-2-amine], the IC50 in assay [1] was 519 nM; in assay [2], more than 10000 nM.

Consider `Fc1cc(C2(Nc3ncc(-c4nnc(C(F)F)o4)cn3)CC2)ccc1Cl` [Compound 2054, N-(1-(4-chloro-3-fluorophenyl)cyclopropyl)-5-(5-(difluoromethyl)-1,3,4-oxadiazol-2-yl)pyrimidin-2-amine], for which the IC50 in assay [1] was 83 nM; in assay [2], more than 10000 nM.

On to `Cc1ccccc1C1(Nc2ncc(-c3nnc(C(F)F)o3)cn2)CC1` [Compound 2055, 5-(5-(difluoromethyl)-1,3,4-oxadiazol-2-yl)-N-(1-(o-tolyl)cyclopropyl)pyrimidin-2-amine], for which the half-maximal inhibitory concentration (IC50) in assay [1] was 31 nM; in assay [2], more than 10000 nM.

Take `Fc1cc(Cl)ccc1C1(Nc2ncc(-c3nnc(C(F)F)o3)cn2)CC1` [Compound 2056, N-(1-(4-chloro-2-fluorophenyl)cyclopropyl)-5-(5-(difluoromethyl)-1,3,4-oxadiazol-2-yl)pyrimidin-2-amine]: the IC50 was 35 nM in assay [1] and more than 10000 nM in assay [2].

`Fc1cc(F)cc(C2(Nc3ncc(-c4nnc(C(F)F)o4)cn3)CC2)c1` [Compound 2057, 5-(5-(difluoromethyl)-1,3,4-oxadiazol-2-yl)-N-(1-(3,5-difluorophenyl)cyclopropyl)pyrimidin-2-amine]: the IC50 in assay [1] was 33 nM; in assay [2], more than 10000 nM.

On to `Fc1ccc(C2(Nc3ncc(-c4nnc(C(F)F)o4)cn3)CC2)cc1F` [Compound 2058, 5-(5-(difluoromethyl)-1,3,4-oxadiazol-2-yl)-N-(1-(3,4-difluorophenyl)cyclopropyl)pyrimidin-2-amine], for which the concentration for half-maximal inhibition (IC50) is 39 nM in assay [1] and more than 10000 nM in assay [2].

As for `FC(F)c1nnc(-c2cnc(NC3(c4cccc(C5CCN(C6COC6)CC5)c4)CCC3)nc2)o1` [Compound 2060, 5-(5-(difluoromethyl)-1,3,4-oxadiazol-2-yl)-N-(1-(3-(1-(oxetan-3-yl)piperidin-4-yl)phenyl)cyclobutyl)pyrimidin-2-amine], the results for the IC50 in assay [1] and in assay [2] were 221 nM and more than 10000 nM, respectively.

Take `Fc1ccc(C2(Nc3ncc(-c4nnc(C(F)F)o4)cn3)CC2)c(F)c1` [Compound 2061, 5-(5-(difluoromethyl)-1,3,4-oxadiazol-2-yl)-N-(1-(2,4-difluorophenyl)cyclopropyl)pyrimidin-2-amine]: the IC50 was 43 nM in assay [1] and more than 10000 nM in assay [2].

`FC(F)c1nnc(-c2cnc(NC3(c4ccc(N5CCOCC5)cc4)CCC3)nc2)o1` [Compound 2062, 5-(5-(difluoromethyl)-1,3,4-oxadiazol-2-yl)-N-(1-(4-morpholinophenyl)cyclobutyl)pyrimidin-2-amine]: the IC50 in assay [1] is 256 nM; in assay [2], more than 10000 nM.
